Laboratory results published in patent US20110077239A1, “GLYCINE RECEPTOR AGONISTS FOR THE TREATMENT OF PHANTOM PHENOMENA” (priority 2007, published 2011).

Tests used:
inner ear = conditions: chronic local administration to the inner ear of guinea pigs; high frequencies; cited from earlier work
auditory nerve = experiment: Measurements of compound action potentials (CAP) of the auditory nerve after local administration; type: in vivo, rat
Text: In the experiments adult female Wistar rats (Charles River, Sulzfeld, Germany) in the age of 2 to 4 months were used.
To get an access to the inner ear (cochlea) the middle ear is opened by surgery: A small opening behind the ear drum enables the access to the round window of the cochlea, in the massive bone of the bony labyrinth this is the only non-traumatic access to the inner ear. A silver wire electrode having a surface melted silver pearl is carefully positioned through the opening on the membrane of the round window, secured with tissue glue and the opening is closed with dental cement. The silver wire is conducted in the neck of the animal through the skin towards the outside and can then directly be connected to the electrophysiology amplifier for the measurements. The direct electrical access through the CAP electrode enables the direct largely interference-free down lead of the compound potentials of the auditory nerves resulting from an acoustic stimulation. In the signal response, besides the compound action potentials of the auditory nerves (CAP), also the formation of the excitation in the outer hair sense cells (OHC) can be detected as cochlea microphone potentials (CM). These three potentials in the measurements in vivo provide information on: 1) the activity of the auditory nerve close to the threshold up to high levels of acoustic pressure and, therefore, also on the modulation of the transmission, which is mediated by a glycinergic efferent feedback to the afferences of the IHCs, 2) the integrity of the IHCs (via the course of the SPs at increasing levels of acoustic pressures), 3) the amplification by the OHC (through the phase synchronicity of the CM signals with the auditory stimulus).
For this purpose the compound action potentials were activated by different sound stimuli (broadband click stimuli, pure sounds having frequencies of between 4 and 32 kHz, and degrees of loudness from 0 to 100 dB SPL).

SMILES	efferent activity and threshold shift after acoustic trauma (inner ear)	amplitude of the CAP signals two days after local administration (auditory nerve; 2 days after LA, high and low degrees of loudness, in relation to the untreated condition)	CAP amplitudes at high degrees of loudness after local administration (auditory nerve; local administration at round window niche, taurine 5 μl of a 50 mM solution, strychnine 5 μl of a 10 mM solution, high degrees of loudness)	CAP amplitudes at low to medium degrees of loudness after local administration (auditory nerve; local administration at round window niche, taurine 5 μl of a 50 mM solution, low to medium degrees of loudness)	amplitude of the CAP signal within 1-3 hours after local administration (auditory nerve; within 1-3 hours after local administration, measurements at 8 kHz, FIG. 7)
O=C1C[C@@H]2OCC=C3CN4CC[C@]56c7ccccc7N1[C@H]5[C@H]2[C@H]3C[C@H]46 [strychnine]	disrupts efferent activity and results in a permanent threshold shift	–	–	–	–
NCCS(=O)(=O)O [taurine]	–	still reduced	overlapping of the CAP amplitude function	increase slower	reduction of the amplitude of the CAP signals
